Experimental data from US5620864A, “Acceptor for fucosyl transferase” (Health Research, Inc., priority 1992, dated 1997).
“And” between values parts separate entries of the source, which are not always exact repeats. Equal entries are not always repeated.

Key:
[1] = molecular target: T1, serum α1,3-L-fucosyltransferase (Homo sapiens, UniProt P51993); assay: Assay of α1,3-fucosyltransferase with various synthetic acceptors, ovarian cancer sera as enzyme source; assay type: biochemical; settings: for [14C] Fucose Incorporated (CPM): acceptor 0.3 mM, 37° C. 18 h
T1 construct: Sera were collected from healthy females and ovarian cancer patients; from tissue; host or cells: blood serum of ovarian cancer patients and healthy females
T1 sequence (P51993 35-359 limits assumed): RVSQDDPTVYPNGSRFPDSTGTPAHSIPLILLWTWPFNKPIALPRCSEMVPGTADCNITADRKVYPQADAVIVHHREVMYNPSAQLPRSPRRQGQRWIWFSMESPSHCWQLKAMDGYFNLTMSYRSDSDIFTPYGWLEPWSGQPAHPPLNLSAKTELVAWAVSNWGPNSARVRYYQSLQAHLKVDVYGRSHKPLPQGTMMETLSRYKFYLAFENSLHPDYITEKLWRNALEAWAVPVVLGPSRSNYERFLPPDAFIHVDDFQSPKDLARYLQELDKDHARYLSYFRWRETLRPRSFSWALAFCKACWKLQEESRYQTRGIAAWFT
Experimental: (§1) Sera were collected from healthy females and ovarian cancer patients admitted to Roswell Park Cancer Institute in Buffalo, N.Y., USA. Ovarian tumor tissues were obtained during surgical procedures from patients with ovarian cancer. Both sera and tissues were stored frozen at -70° C. until use.
(§2) An incubation mixture contained 50 mM HEPES-NaOH, pH 7.5, 5 mM MnC12, 7 mM ATP, 3 mM NaN3, the acceptor 0.3 mM (for serum enzyme) or 3.0 mM (for tumor enzyme), 0.125 μCi of GDP-[U-^14 C] Fuc (Sp. Act. 216 mCi/mmol) and enzyme in a total volume of 0.10 ml; the control incubation mixture had everything except the acceptor. At the end of incubation at 37° C. for 18 h, the mixture was diluted with 1 ml water and passed through Dowex-1-C1 column (1 ml in a Pasteur pipet). The column was washed twice with 1 ml water; the breakthrough and wash, which contained the [^14 C] fucosylated neutral acceptor, were collected together in a scintillation vial and counted for radioactivity using the scintillation coctail 3a70 (Research Products International, Mount Prospects, Ill.) and Beckman LS9000. The Dowex column was then eluted successively with 3 ml each of 0.1M and 0.2M NaCl; these eluates which contained the [^14 C] fucosylated sulfated acceptors, were counted for radioactivity as before. Corrections were made by subtracting the radioactivity in the water and NaCl eluates of the control incubation mixture from the corresponding test fractions. The duplicate runs of samples gave almost identical values, the difference being <5%.
The activity of serum α1,3-fucosyltransferase was measured with the specific substrate 2'-methyl LacNAc and compared with the ability of several other synthetic substrates to act as an acceptor of fucose.
When the structure of the acceptor 2'-methyl LacNAc was modified by replacing the methyl group with sulfate group in C-2', 3', 6' or 6 position and tested their ability to act as the acceptor of fucose, the following novel findings emerged. […] The β-benzyl glycoside of 3' sulfo LacNAc was quite active (168.4%) but less than the parent compound.

[2] = test system: α1,3-L-fucosyltransferase of the particulate fraction of ovarian tumor; assay: Assay of α1,3-fucosyltransferase with synthetic acceptors, ovarian tumor particulate fraction; assay type: biochemical, human; settings: for [14C] Fucose Incorporated (CPM): acceptor 3.0 mM, 37° C. 18 h
Experimental: FIG. 2 The scheme for the preparation of the particulate and soluble fractions of human ovarian tumor.
as §2
This finding is quite different from what we found with the soluble fraction, where α1,4-fucosyltransferase activity seems to be greater than α1,3-fucosyltransferase activity. […] The different nature of the above enzymes was made further clear, when sulfated derivatives of LacNAc was tested as acceptors.

[3] = molecular target: T1, serum α1,3-L-fucosyltransferase; assay: Detection of serum α1,3-L-fucosyltransferase in six ovarian cancer sera and one normal serum; assay type: biochemical; settings: for percentage of the ratio between the CPM obtained for cancer serum and normal serum: acceptor 0.30 mM; for α1,3 fucosyltransferase activity of the cancer sera as compared to the normal serum: range over six ovarian cancer sera, acceptor 0.3 mM
Experimental: as §1, §2
The superiority of 3'-sulfo LacNAc over 2'-methyl LacNAc as the substrate for measuring serum α1,3 fucosyltransferase was tested in three different ways. First, the incubation mixtures in duplicate contained 0.3 mM 3'-sulfo LacNAc and varying amounts of 2'-methyl LacNAc (0 to 7.5 mM); the incorporation of [^14 C] fucose by the serum enzyme into both substrates was measured (Table III). The incorporation of [^14 C] fucose into 3'-sulfo LacNAc decreased and into 2'-methyl LacNAc increased with the increase in the concentration of the latter. […] 25 fold less than 2' methyl LacNAc. Secondly, the incubation mixtures in duplicate contained 3.0 mM 2'-methyl LacNAc and varying amounts of 3'-sulfo LacNAc (0 to 0.75 mM); the incorporation of [^14 C] fucose by the same serum enzyme into both substrates was measured (Table III). The [^14 C] fucose incorporation into 2'-methyl LacNAc decreased and into 3'-sulfo LacNAc increased by increasing the concentration of the latter. […] Thirdly, both 2'-methyl LacNAc and 3'-sulfo LacNAc at 0.3 mM concentration were incubated separately in duplicates with six ovarian cancer sera and one normal serum; the incorporation of [^14 C] fucose into these acceptors were quantitated (Table IV). The [^14 C] fucose incorporation into 3'-sulfo LacNAc was consistently higher (4-5 fold) than that into 2'-methyl LacNAc, including the assay of the normal serum. […] These values indicate that 3'-sulfo LacNAc is a very high affinity acceptor for α1,3 fucosyltransferase. The [^14 C] fucosylated product arising from 3'-sulfo LacNAc has been tentatively identified as 3'-sulfo, 3-fucosyl LacNAc by comparing strictly its mobility on paper with the synthetic authentic compound 3'-sulfo, 3-fucosyl LacNAc (see FIG. 5).

[4] = 2'-methyl LacNAc = 100, listed as 3'-Sulfo LacNAc
[5] = 2'-methyl LacNAc = 100, listed as 3'-sulfo LacNAc

SMILES	[14C] Fucose Incorporated (CPM) [1]	Relative Percent ([2]; 2'-methyl LacNAc = 100)	[14C] Fucose Incorporated (CPM) [2]	Incorporation of [14C] Fucose (CPM) into the Acceptor (0.30 mM) ([3]; Normal Serum)	Incorporation of [14C] Fucose (CPM) into the Acceptor (0.30 mM) ([3]; Ovarian Cancer Serum 1)	percentage of the ratio between the CPM obtained for cancer serum and normal serum ([3]; Ovarian Cancer Serum 1)	Incorporation of [14C] Fucose (CPM) into the Acceptor (0.30 mM) ([3]; Ovarian Cancer Serum 2)	percentage of the ratio between the CPM obtained for cancer serum and normal serum ([3]; Ovarian Cancer Serum 2)	Incorporation of [14C] Fucose (CPM) into the Acceptor (0.30 mM) ([3]; Ovarian Cancer Serum 3)	percentage of the ratio between the CPM obtained for cancer serum and normal serum ([3]; Ovarian Cancer Serum 3)	Incorporation of [14C] Fucose (CPM) into the Acceptor (0.30 mM) ([3]; Ovarian Cancer Serum 4)	percentage of the ratio between the CPM obtained for cancer serum and normal serum ([3]; Ovarian Cancer Serum 4)	Incorporation of [14C] Fucose (CPM) into the Acceptor (0.30 mM) ([3]; Ovarian Cancer Serum 5)	percentage of the ratio between the CPM obtained for cancer serum and normal serum ([3]; Ovarian Cancer Serum 5)	Incorporation of [14C] Fucose (CPM) into the Acceptor (0.30 mM) ([3]; Ovarian Cancer Serum 6)	percentage of the ratio between the CPM obtained for cancer serum and normal serum ([3]; Ovarian Cancer Serum 6)	α1,3 fucosyltransferase activity of the cancer sera as compared to the normal serum [3]	other results
CO[C@H]1[C@H](O[C@H]2[C@H](O)[C@@H](NC(C)=O)C(O)O[C@@H]2CO)O[C@H](CO)[C@H](O)[C@@H]1O (stereo partly drawn) [2'-methyl LacNAc]	1730 CPM	100%	48252 CPM	397 CPM	1325 CPM	334%	1724 CPM	434%	1359 CPM	342%	1347 CPM	339%	699 CPM	176%	975 CPM	246%	176%-434%	–
CC(=O)N[C@H]1C(O)O[C@H](CO)[C@@H](O[C@@H]2O[C@H](CO)[C@H](O)[C@H](OS(=O)(=O)O)[C@H]2O)[C@@H]1O (stereo partly drawn) [3'-Sulfo-LacNAc, SODIUM β-D-GALACTOPYRANOSYL 3-SULFATE-(1→4)-2-ACETAMIDO-2-DEOXY-D-GLUCOPYRANOSE]	5894 CPM	39.0%	18793 CPM	1543 CPM	7310 CPM	474%	9816 CPM	636%	5261 CPM	341%	5480 CPM	355%	3088 CPM	200%	5483 CPM	355%	200%-636%	Relative Percent ([1]; 2'-methyl LacNAc = 100): 340.8%; Relative Percent [1, 4]: 340.8%; Relative Percent [1, 5]: 340.8%; Relative Percent ([1]; 2'-methyl LacNAc = 100, listed as 3'-sulfo-LacNAc): 340%; Relative Percent [2, 4]: 39%; Relative Percent [2, 5]: 39.0%; Ratio B/A (CPM into 3'-Sulfo LacNAc / CPM into 2'-Methyl LacNAc) ([3]; Normal Serum): 3.89; Ratio B/A (CPM into 3'-Sulfo LacNAc / CPM into 2'-Methyl LacNAc) ([3]; Ovarian Cancer Serum 1): 5.52; Ratio B/A (CPM into 3'-Sulfo LacNAc / CPM into 2'-Methyl LacNAc) ([3]; Ovarian Cancer Serum 2): 6.69; Ratio B/A (CPM into 3'-Sulfo LacNAc / CPM into 2'-Methyl LacNAc) ([3]; Ovarian Cancer Serum 3): 3.87; Ratio B/A (CPM into 3'-Sulfo LacNAc / CPM into 2'-Methyl LacNAc) ([3]; Ovarian Cancer Serum 4): 4.06; Ratio B/A (CPM into 3'-Sulfo LacNAc / CPM into 2'-Methyl LacNAc) ([3]; Ovarian Cancer Serum 5): 4.42; Ratio B/A (CPM into 3'-Sulfo LacNAc / CPM into 2'-Methyl LacNAc) ([3]; Ovarian Cancer Serum 6): 5.62; sensitivity / [14C] fucose incorporation relative to 2'-methyl LacNAc ([3]; blood sera, acceptors 0.3 mM): 3 to 5 fold and 4-5 fold
